Source: PubChem BioAssay (NCI)
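1) Cells in 96-well plates. 2) Compound, 48 h, 5 concentrations. 3) Linear interpolation between surrounding doses. 4) Unreached endpoint = highest concentration. GI50 = concentration required for 50% inhibition of growth. Definition used: TGI = concentration required for complete inhibition of growth.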 Where a SMILES comes first, the peptide text is derived from it. [ ]: non-standard residue; d: D form. The star is where a group is joined. mTyr = N[CH](Cc1cccc(O)c1)C(=O)O; Cbz = O=C(OCc1ccccc1)*; OBn = c1ccc(CO*)cc1

Assays:
Assay in all cases: NCI anticancer screen, dose series, 48 h
ACHN renal = system: ACHN renal
HT29 colon = system: HT29 colon
M14 melanoma = system: M14 melanoma
NCI-H23 lung = system: NCI-H23 lung
SK-MEL-2 melanoma = system: SK-MEL-2 melanoma
SK-OV-3 ovarian = system: SK-OV-3 ovarian
SF-539 CNS = system: SF-539 CNS
IGROV1 ovarian = system: IGROV1 ovarian
A498 renal = system: A498 renal
MALME-3M melanoma = system: MALME-3M melanoma
HCC-2998 colon = system: HCC-2998 colon
MDA-MB-231 breast = system: MDA-MB-231 breast
MDA-MB-435 = system: MDA-MB-435
DU-145 prostate = system: DU-145 prostate
UO-31 renal = system: UO-31 renal

| SMILES | TGI (ACHN renal) [µM] | TGI (HT29 colon) [µM] | TGI (M14 melanoma) [µM] | TGI (NCI-H23 lung) [µM] | TGI (SK-MEL-2 melanoma) [µM] | TGI (SK-OV-3 ovarian) [µM] | TGI (SF-539 CNS) [µM] | TGI (IGROV1 ovarian) [µM] | TGI (A498 renal) [µM] | TGI (MALME-3M melanoma) [µM] | TGI (HCC-2998 colon) [µM] | TGI (MDA-MB-231 breast) [µM] | TGI (MDA-MB-435) [µM] | TGI (DU-145 prostate) [µM] | TGI (UO-31 renal) [µM] | GI50 (NCI-H23 lung) [µM] | GI50 (SK-MEL-2 melanoma) [µM] | GI50 (SF-539 CNS) [µM] | GI50 (MALME-3M melanoma) [µM] |
| --- | --- | --- | --- | --- | --- | --- | --- | --- | --- | --- | --- | --- | --- | --- | --- | --- | --- | --- | --- |
| CC(NC(C)(C)C)C(=O)c1cccc(Cl)c1 (stereo not given) | > 100 | > 100 | > 100 | > 100 | > 100 | > 100 | > 100 | > 100 | > 100 | > 100 | > 100 |  |  |  |  |  |  |  |  |
| CC(C)(C)c1cc(C2COC(c3cc(C(C)(C)C)c(O)c(C(C)(C)C)c3)CO2)cc(C(C)(C)C)c1O (stereo not given) | > 100 | > 100 | > 100 | > 100 | > 100 | > 100 | > 100 | > 100 | > 100 | > 100 |  | > 100 | > 100 | > 100 | > 100 |  |  |  |  |
| CCC1(COC(NC(=O)c2ccccc2)(C(F)(F)F)C(F)(F)F)COC1 | > 100 | > 100 | > 100 | > 100 | > 100 | > 100 | > 100 | > 100 | > 100 |  | > 100 |  | > 100 |  | > 100 |  |  |  |  |
| Cc1ccc2c(=O)cc(-c3ccc(-c4ccccc4)s3)[nH]c2n1 | > 100 | > 100 | > 100 | > 100 | > 100 | > 100 | 36.6 | > 100 | 72.7 | > 81.1 |  | > 100 | > 100 | > 100 | 0.219 |  |  |  |  |
| O=C(Nc1cccc(F)c1)c1cc2ccc(O)cc2oc1=Nc1ccccc1F | 14.2 | 51.5 | 17.4 | 5.86 | 18.7 | 15.9 | 27 | 7.44 | 35.6 | 18.6 | 28.7 |  | 14.2 | 15.1 | 14.2 |  |  |  |  |
| CCNC1=C(NC(=O)CC)C(=O)c2ccccc2C1=O | > 100 | > 100 | 98.5 | > 100 |  | > 100 | > 100 | > 100 |  | 60.1 | > 100 | > 100 |  | > 100 |  |  |  |  |  |
| Brc1ccc(-c2cn3ccncc3n2)cc1 | > 100 | > 100 | > 100 | > 100 | > 100 | > 100 | > 100 | > 100 | > 100 | > 100 |  | > 100 | > 100 | > 100 | > 100 |  |  |  |  |
| CC(C)(CC(O)C#N)/[N+]([O-])=[N+](\[O-])C(C)(C)CC(O)C#N (stereo not given) | 74.5 | > 100 | 36.9 | 66.8 | > 100 | > 100 |  | 49.6 | > 100 | 54.2 | 34.2 | 62.8 | > 100 | 92.9 | 98.1 |  |  |  |  |
| N#C/C(=C\c1c[nH]c2ccccc12)C(=O)c1ccc(O)c(O)c1 | > 94.3 | > 70.8 | > 100 | > 100 | > 80.3 | > 100 | > 83.7 | > 89.4 | > 100 | > 78.8 | > 100 |  | > 100 | > 100 | 45.9 |  |  |  |  |
| C/C(=C/CC[C@]1(CO)CC[C@]2(CO)[C@H](CC[C@@H]3[C@@]4(C)CC[C@H](OC5OCC(O)C(O)C5OC5OC(CO)C(O)C(O)C5O)C(C)(C)[C@@H]4CC[C@]32C)[C@H]1O)CO (stereo not given in full) | > 100 | > 100 | > 100 | > 100 |  | > 100 | > 100 | > 100 | > 100 | > 100 |  | > 100 | > 100 | > 100 | > 100 |  |  |  |  |
| O=C(N/N=C/c1cc(Cl)cc(Cl)c1O)c1ccccc1O | 5.57 | 26.1 | 4.07 |  | 6.87 | 15.3 | 6.69 | 19.2 | 40.6 | 11.6 | 14.6 |  |  |  | 29.5 | 2.69 | 1.39 | 1.75 | 2.8 |
| CCOC(=O)CSc1nnc(C(Sc2nc(-c3ccccc3)c(-c3ccccc3)[nH]2)C(C)C)n1-c1ccccc1 (stereo not given) | > 31.6 | 19.4 | 20.1 | > 10 | 22.9 | > 10 | 18.8 | > 10 | > 10 | 28.3 | 43.5 | 64.1 |  | > 100 | > 31.6 |  |  |  |  |
| COc1ccc(CSc2ccccc2Cn2cccc2)cc1OC | > 100 | > 100 |  | > 100 |  | > 100 | > 100 | > 100 | > 100 | > 100 | > 100 |  | > 100 | > 100 | > 100 |  |  |  |  |
| Fc1ccccc1C1SCc2nc3cc4ccccc4cc3n21 (stereo not given) | > 100 | > 100 | > 100 | > 100 | > 100 | > 100 |  | > 100 |  | > 100 | > 100 | > 100 | > 100 | > 100 | > 100 |  |  |  |  |
| CCOc1ccc(-n2nnc3c(N)nc(N)nc32)cc1 | > 100 | > 100 | > 100 | > 100 | > 100 | > 100 | > 100 | > 100 | > 100 | > 100 |  | > 100 | > 100 | > 100 |  |  |  |  |  |
| COc1cc(/C=C(/C#N)C(N)=O)ccc1O |  | > 100 |  | > 100 | > 100 | > 100 | > 100 | > 100 | > 100 | > 100 | > 82.1 |  |  |  | > 100 |  |  |  |  |
| COC(=O)C(Cc1cccc(O)c1)NC(=O)C(CC(=O)OCc1ccccc1)NC(=O)OCc1ccccc1 (stereo not given) (Cbz-Asp(OBn)-[mTyr]-OMe; configuration not given here) | > 100 | > 100 | > 100 | > 100 | > 100 |  |  | > 100 | > 100 | > 100 | > 100 | > 100 |  |  | > 100 |  |  |  |  |
| COC(=O)c1cnn2c1n[n+]([O-])c1ccccc12 | > 100 | > 100 | > 100 | > 100 | > 100 | > 100 |  | > 100 | > 100 | > 100 |  | > 100 | > 100 | > 100 | > 100 |  |  |  |  |
| COc1cccc(NC(=O)C(C#N)=C(SC)SC)c1 | > 100 | > 100 | > 100 |  | > 100 | > 100 | > 100 | > 100 | > 100 | > 100 | > 100 | > 100 | > 100 |  |  |  |  |  |  |
| O=C(CSC1=NCCN1)Nc1ccccc1 | 53.8 | > 100 | > 100 | > 100 | 44.5 |  |  | > 100 | > 100 | 60 | 63.1 | 50.3 | > 100 | > 100 | > 100 |  |  |  |  |
| Cc1ccc(N=Nc2c(O)c(C(=O)Nc3ccccc3)cc3ccccc23)c([N+](=O)[O-])c1 | > 100 | > 100 | > 100 | > 100 | > 100 | > 100 |  | > 100 | > 100 | > 100 |  | > 100 | > 100 | > 100 | > 100 |  |  |  |  |
| COc1ccc2oc(=N)c(C(=O)Nc3ccccn3)cc2c1 | > 100 | > 100 | > 100 | > 100 | > 100 | > 100 |  | > 100 | > 100 | > 100 | > 100 | > 100 | > 100 | > 100 |  |  |  |  |  |
| CN(CCCNC(=O)c1nn(-c2ccc(Cl)cc2Cl)c2c1Cc1ccccc1-2)CCCNC(=O)c1nn(-c2ccc(Cl)cc2Cl)c2c1Cc1ccccc1-2 |  | 3.42 | 3.47 | 3.48 | 3.2 | 3.06 |  |  | 3.13 | 3.35 | 3 | 3.18 | 2.57 | 3.18 | 3.59 |  |  |  |  |
| COc1ccc(-n2cnc3c(NC(CCSC)C(=O)O)ncnc32)cc1 (stereo not given) | > 100 | > 100 | > 100 | > 100 | > 100 | > 100 |  | > 100 | > 100 |  | > 100 | > 100 | > 100 | > 100 | > 100 |  |  |  |  |
| CCCc1ccc(NCc2cc(OC)c(OC)c(OC)c2)cc1 | > 100 | 61.7 |  | 69.2 | 44.2 | 66.3 | 63.3 | > 100 | 98.6 | 50.4 |  |  |  |  | 56.6 |  |  |  |  |
| Cc1ccc(CC(C)N)cc1 (stereo not given) | > 100 | > 100 | > 100 | > 100 | > 100 | > 100 | > 100 | > 100 | > 100 | > 100 | > 100 |  |  |  | > 100 |  |  |  |  |
